In paper PMC7736828 (2020):
Blank lines part the entries; values can stand above or below the compound they belong to.

Columns and labels:
[1] = tested on: 147 Lla (RNA, riboswitch) AAAAUAGAAUAAAUACUCCACCGGGAGUUAAAUCGUAUGAACGAUUGUUUGCAUUUCAGUAGGUCUGAGAAGAAAUGUAGAUAGUCGUUCUUUUUUUAGCUGAGGAGGCGAAAAUGACUUGGCUAUAUCUACUAAUAGCAGGAAUUU; test: in vitro transcription termination assay; conditions: 1.8 mM NTPs, 37 °C; for EC50: E. coli RNA polymerase, 8 min, co-transcriptional, full-length fraction; for binding: highest tested 10 mM
[2] = tested on: 95 Lla (RNA, riboswitch) GGGAAAAUAGAAUAAAUACUCCACCGGGAGUUAAAUCGUAUGAACGAUUGUUUGCAUUUCAGUAGGUCUGAGAAGAAAUGUAGAUAGUCGUUCUU; test: in-line probing; conditions: 20 mM Mg2+, 100 mM K+, 50 mM Tris-HCl pH 8.3 (at 23 °C); for apparent KD: ~48 h; for binding: highest tested 10 mM
[3] = tested on: GGAM-6 (Sru 111) (RNA, mRNA element) GGGUCAAUACUCGUAUCGGACGGCAAGCAAUCGCCUGCUUGCCAGAUAAGGUGUCCAUAGACACUGGAACGGGUUAUUCAGGCCAGAUAAGAUCGCAUUCUUAUCUGGCCU; test: in-line probing and in vitro transcription; conditions: 20 mM Mg2+, 100 mM K+; initial experiments, data not shown; highest concentration not stated
[4] = tested on: 95 Lla M2 (U67A) (RNA, riboswitch) GGGAAAAUAGAAUAAAUACUCCACCGGGAGUUAAAUCGUAUGAACGAUUGUUUGCAUUUCAGUAGGACUGAGAAGAAAUGUAGAUAGUCGUUCUU; test: in-line probing; conditions: 20 mM Mg2+, 100 mM K+; 50 mM Tris-HCl pH 8.3 (at 23 °C); highest tested 10 mM
[5] = tested on: GGAM-2 (Cfi 80) (RNA, mRNA element) GGUCGCAGGAAUGGUACGGUCGUACCAGAACCGUGCGCGGGACGGCGGACCUGACACCCGGCGCGCAGCGGUCGCCCACC; test: in-line probing and in vitro transcription; conditions: 20 mM Mg2+, 100 mM K+; initial experiments, data not shown; highest concentration not stated
[6] = tested on: GGAM-2 (Cfi 63) (RNA, mRNA element) GGAAUGGUACGGUCGUACCAGAACCGUGCGCGGGACGGCGGACCUGACACCCGGCGCGCAGCG; test: in-line probing and in vitro transcription; conditions: 20 mM Mg2+, 100 mM K+; initial experiments, data not shown; highest concentration not stated
[7] = tested on: 92 Rti (RNA, riboswitch) GGGACAAUUGAAGCAUCUGCCGCCGGGUAGACCAAGAACAAAGCAUGUGCGCCCCUAUCGUUAGGCCAUAGAAGAUAGGGGAAAGCGCAUGC; test: in-line probing; conditions: 20 mM Mg2+, 100 mM K+, 50 mM Tris-HCl pH 8.3 (at 23 °C), ~48 h
[8] = tested on: GGAM-3 (Bub 59) (RNA, mRNA element) GGGAUCCAUCCGGGGUACCGCUCCCGCAAGUUGAUCGCGCUCGGUACAAGCGCGAAAUC; test: in-line probing and in vitro transcription; conditions: 20 mM Mg2+, 100 mM K+; initial experiments, data not shown; highest concentration not stated
[9] = tested on: 95 Lla M4 (G62C) (RNA, riboswitch) GGGAAAAUAGAAUAAAUACUCCACCGGGAGUUAAAUCGUAUGAACGAUUGUUUGCAUUUCACUAGGUCUGAGAAGAAAUGUAGAUAGUCGUUCUU; test: in-line probing; conditions: 20 mM Mg2+, 100 mM K+; 50 mM Tris-HCl pH 8.3 (at 23 °C); up to 10 mM; folding differs from wt
[10] = tested on: GGAM-4 (Msu 80) (RNA, mRNA element) GGGAAACUAAGGUCCGCCCGCUAGGCCGGCCGCGCCUCGACGCGCCGGCUCUCGUCAAUCGAACACGCGCGGUACCCAUG; test: in-line probing and in vitro transcription; conditions: 20 mM Mg2+, 100 mM K+; initial experiments, data not shown; highest concentration not stated
[11] = tested on: GGAM-5 (Nov 77) (RNA, mRNA element) GGGUGGAUGCGCCGAGAAUAGAGUAGCAGGGUGGUGUCUCCUGCGCCCGUAAGGGUUCUUCCCAGCCACGGCGUCAA; test: in-line probing and in vitro transcription; conditions: 20 mM Mg2+, 100 mM K+; initial experiments, data not shown; highest concentration not stated
[12] = tested on: 95 Lla M1 (G66C) (RNA, riboswitch) GGGAAAAUAGAAUAAAUACUCCACCGGGAGUUAAAUCGUAUGAACGAUUGUUUGCAUUUCAGUAGCUCUGAGAAGAAAUGUAGAUAGUCGUUCUU; test: in-line probing; conditions: 20 mM Mg2+, 100 mM K+; 50 mM Tris-HCl pH 8.3 (at 23 °C); highest tested 10 mM
[13] = tested on: GGAM-3 (Bub 73) (RNA, mRNA element) GGGAUCCAUCCGGGGUACCGCUCCCGCAAGUUGAUCGCGCUCGGUACAAGCGCGAAAUCAGGAGCGGUACGCC; test: in-line probing and in vitro transcription; conditions: 20 mM Mg2+, 100 mM K+; initial experiments, data not shown; highest concentration not stated
[14] = tested on: GGAM-4 (Msu 98) (RNA, mRNA element) GGGCGACAGCCUCUCCUCGCGAAACUAAGGUCCGCCCGCUAGGCCGGCCGCGCCUCGACGCGCCGGCUCUCGUCAAUCGAACACGCGCGGUACCCAUG; test: in-line probing and in vitro transcription; conditions: 20 mM Mg2+, 100 mM K+; initial experiments, data not shown; highest concentration not stated
[15] = tested on: 95 Lla M3 (G72C) (RNA, riboswitch) GGGAAAAUAGAAUAAAUACUCCACCGGGAGUUAAAUCGUAUGAACGAUUGUUUGCAUUUCAGUAGGUCUGACAAGAAAUGUAGAUAGUCGUUCUU; test: in-line probing; conditions: 20 mM Mg2+, 100 mM K+; 50 mM Tris-HCl pH 8.3 (at 23 °C); highest tested 10 mM

- binding [3]: no
- EC50 [1]: 0.26 ± 0.03 mM
- binding [4]: no
- binding [5]: no
- binding [6]: no
- apparent KD [2]: 0.21 ± 0.02 mM
- apparent KD [7]: 190 ± 30 µM
- binding [8]: no
- binding [9]: weak
- binding [10]: no
- binding [11]: no
- binding [12]: no
- binding [13]: no
- binding [14]: no
- binding [15]: no
SMILES: N=C(N)N

- EC50 [1]: 3.8 ± 0.5 mM
- apparent KD [2]: 7.5 ± 0.8 mM
SMILES: N=C(N)NN

- binding [1]: no
- binding [2]: no
SMILES: NC(N)=O

Further lines, the compound ahead of its results:

SMILES: CNC(=N)N
- EC50 [1]: 2.7 ± 0.7 mM
- apparent KD ([2]; Figure 5 legend prints ±0.6): 4.1 ± 0.5 mM

SMILES: N=C(N)NCCC[C@H](N)C(=O)O
- binding [1]: no
- binding [2]: no
